US20120130060A1, “Modified antisense oligopeptides with anticancer properties and method of obtaining them” (priority 2010, published 2012)

Legend:
[1] = ED50 and therapeutic index, comparative characteristics of Anticanum and Taxotere; type: in vivo
[2] = Average lethal intravenous dose in rats; conditions: both, rat, in vivo
Excerpt: The calculation of the average lethal dose was made according to B. M. Shtabskiy's methods with the use of the equation:
where: • X1 and X2 are the values of the two extreme of the three doses studied that have an effect on more or less than 50% of the animals; the third dose is the intermediate; • Y1 ? Y2 are the lethality percentages corresponding to doses X1 and X2; • ΣY— is the sum of the three doses studied; the number of doses used in the calculations is equal to 3.
Then d, the average margin of error for the average lethal dose was found through use of the Miller-Tainter formula:
N is the total number of animals in the groups in which even one animal died or survived, and the confidence ranges were established.

For `CC(=O)O[C@@]12CO[C@@H]1C[C@H](O)[C@@]1(C)C(=O)[C@H](O)C3=C(C)[C@@H](OC(=O)[C@H](O)[C@@H](NC(=O)OC(C)(C)C)c4ccccc4)C[C@@](O)([C@@H](OC(=O)c4ccccc4)[C@H]21)C3(C)C` [Taxotere], the ED50 [1] was 0.035 mg/kg and the LD50 [2] was 0.12 mg/kg.
